Source: patent US20200392138A1, “PESTICIDALLY ACTIVE MESOIONIC HETEROCYCLIC COMPOUNDS” (Syngenta Participations AG, priority 2017, published 2020)

Tests used:
Type in all cases: in vivo
Diabrotica balteata = Diabrotica balteata (corn root worm), maize sprouts sprayed, L2 larvae; details: 96 h, application rate of 200 ppm, 4 days after infestation, read-out: effect in at least one of the two categories (mortality or growth inhibition)
Method: Diabrotica balteata (Corn Root Worm)
Maize sprouts placed onto an agar layer in 24-well microtiter plates were treated with aqueous test solutions prepared from 10′000 ppm DMSO stock solutions by spraying. After drying, the plates were infested with L2 larvae (6 to 10 per well). The samples were assessed for mortality and growth inhibition in comparison to untreated samples 4 days after infestation.
(§1) The following compounds gave an effect of at least 80% in at least one of the two categories (mortality or growth inhibition) at an application rate of 200 ppm: […]

Spodoptera littoralis = Spodoptera littoralis (Egyptian cotton leaf worm), cotton leaf discs sprayed, L1 larvae; details: foliar, 72 h, application rate of 200 ppm, 3 days after infestation, read-out: control (mortality, anti-feeding effect, growth inhibition)
Method: Spodoptera littoralis (Egyptian Cotton Leaf Worm)
Cotton leaf discs were placed onto agar in 24-well microtiter plates and sprayed with aqueous test solutions prepared from 10′000 ppm DMSO stock solutions. After drying the leaf discs were infested with five L1 larvae. The samples were assessed for mortality, anti-feeding effect, and growth inhibition in comparison to untreated samples 3 days after infestation. Control of Spodoptera littoralis by a test sample is given when at least one of the categories mortality, anti-feedant effect, and growth inhibition is higher than the untreated sample.

Myzus persicae = Myzus persicae (green peach aphid): feeding/contact activity, sunflower leaf discs; details: foliar, 144 h, application rate of 200 ppm, mixed ages, 6 days after infestation
Method: Myzus persicae (Green Peach Aphid): Feeding/Contact Activity
(§2) Sunflower leaf discs were placed onto agar in a 24-well microtiter plate and sprayed with aqueous test solutions prepared from 10′000 ppm DMSO stock solutions. After drying, the leaf discs were infested with an aphid population of mixed ages. The samples were assessed for mortality 6 days after infestation.

Euschistus heros = Euschistus heros (neotropical brown stink bug), soybean leaves sprayed, N2 nymphs; details: 120 h, application rate of 200 ppm, 5 days after infestation, read-out: effect in at least one of the two categories (mortality or growth inhibition)
Method: Euschistus heros (Neotropical Brown Stink Bug)
Soybean leaves on agar in 24-well microtiter plates were sprayed with aqueous test solutions prepared from 10′000 ppm DMSO stock solutions. After drying the leaves were infested with N2 nymphs. The samples were assessed for mortality and growth inhibition in comparison to untreated samples 5 days after infestation.
as §1

Thrips tabaci = Thrips tabaci (onion thrips) feeding/contact activity, sunflower leaf discs; details: foliar, 144 h, application rate of 200 ppm, mixed ages, 6 days after infestation
Method: Thrips tabaci (Onion Thrips) Feeding/Contact Activity
as §2, with “on” for “onto”, “in” for “in a”, “plates” for “plate”, “drying” for “drying,”, “a thrips” for “an aphid”

SMILES	percent effect (mortality or growth inhibition) at 200 ppm (Diabrotica balteata) [%]	mortality at 200 ppm (Spodoptera littoralis) [%]	mortality at 200 ppm (Myzus persicae) [%]	percent effect (mortality or growth inhibition) at 200 ppm (Euschistus heros) [%]	mortality at 200 ppm (Thrips tabaci) [%]
Cn1ccc2n1c(=O)c(-c1cc(Cl)cc(Cl)c1)c([O-])[n+]2Cc1cnc(Cl)s1 [Compound A1, 4-[(2-chlorothiazol-5-yl)methyl]-6-(3,5-dichlorophenyl)-1-methyl-7-oxo-pyrazolo[1,5-a]pyrimidin-4-ium-5-olate]	≥ 80	≥ 80	–	–	–
Cn1ccc2n1c(=O)c(-c1cc(Cl)cc(Cl)c1)c([O-])[n+]2CCn1cncn1 [Compound B21]	–	–	≥ 80	–	–
Cn1ccc2n1c(=O)c(-c1cccc(C(F)(F)F)c1)c([O-])[n+]2CCC#N [Compound B2, 4-(2-cyanoethyl)-1-methyl-7-oxo-6-[3-(trifluoromethyl)phenyl]pyrazolo[1,5-a]pyrimidin-4-ium-5-olate]	≥ 80	–	–	≥ 80	≥ 80
